Results on one compound are retold here after US20190059368A1, “3,5-DIMETHOXYSTILBENE ANALOGS AND USES THEREOF” (The United States of America, as represented by the …, priority 2017, published 2019).

For one assay, the system named is C. gloeosporioides. As to the kind of experiment: Direct bioautography, antifungal. Type of assay: cell-based, Colletotrichum gloeosporioides. The conditions noted are these: Colletotrichum gloeosporioides; 2 mM; 4 μl spotted (2 μl of the positive controls); average of 2 assays; read-out: zones of inhibition. Here is the method: (§1) The analogs were tested for activity against Colletotrichum acutatum SIMMONDS, C. fragariae BROOKS, and C. gloeosporioides (PENZ) PENZ & SACC. in Penz., using a direct bioautography method as previously described by Tabanca et al. (Nat. Prod. Commun. 2008, 3, 1073) and Wang, et al. (J. Agric. Food Chem. 2013, 61, 4551). Technical grade commercial fungicide standards benomyl, cyprodinil, azoxystrobin, and captan were used at 0.9-1.61 μg/μl concentrations in 95% EtOH. After sample application, each TLC plate was subsequently sprayed with a spore suspension (3.0×10^5 spores/ml) of the fungus of interest and incubated in a moisture chamber for 4 days at 26° C. with a 12 hour photoperiod. Clear zones of fungal growth inhibition on the TLC plate indicated the presence of antifungal constituents in each extract or pure compound. The test compounds were prepared at 2 mM soln. in 95% EtOH, and 4 μl were spotted on the plates (2 μl of the positive controls).

Another assay deals with Colletotrichum acutatum. As to the kind of experiment: Direct bioautography, antifungal. It is filed as cell-based. The conditions noted are these: Colletotrichum acutatum; 2 mM; 4 μl spotted (2 μl of the positive controls); average of 2 assays; read-out: zones of inhibition. Here is the method: as §1
The next assay has as its system Colletotrichum species. As to the kind of experiment: Direct bioautography, antifungal (overall statement). It is filed as cell-based, Colletotrichum sp. Here is the method:
as §1

For the next assay, the system named is C. fragariae. As to the kind of experiment: Direct bioautography, antifungal. Type of assay: cell-based, Colletotrichum fragariae. The conditions noted are these: Colletotrichum fragariae; 2 mM; 4 μl spotted (2 μl of the positive controls); average of 2 assays; read-out: zones of inhibition. Here is the method: as §1

With `COc1cc(/C=C\c2ccc(F)cc2)cc(OC)c1C` [Compound 7e, (Z)-1,3-dimethoxy-5-(4-fluorostyryl)-2-methylbenzene], the zone of inhibition at 2000 µM with C. gloeosporioides, in the assay with Colletotrichum acutatum and in the assay with C. fragariae was 6 mm in each case. Besides, the “inhibitory effect on Colletotrichum species (in words)” value with Colletotrichum species is “strong inhibitory effect”.
